Results from the CheMixHub viscosity set.
Several values for one entry are separate records, joined by “and”; a condition that tells them apart may be missing. Equal entries are not always repeated. ± gives the uncertainty stated by the source.

Experiment: xn = mol fraction of the nth substance listed

CNC[C@H](O)c1cccc(O)c1.Cl + CO
viscosity [mPa·s], 100 kPa
Settings	293.15 K	298.15 K	303.15 K	308.15 K	313.15 K	318.15 K	323.15 K
x1 = 0.00048	0.6061 ± 0.0073	0.5699 ± 0.0072	0.5374 ± 0.0071	0.4992 ± 0.007	0.4719 ± 0.0069	0.4428 ± 0.0068	0.4161 ± 0.0067
x1 = 0.00096	0.6213 ± 0.0073	0.5836 ± 0.0072	0.5482 ± 0.0071	0.5108 ± 0.007	0.4839 ± 0.0069	0.4485 ± 0.0068	0.4228 ± 0.0067
x1 = 0.00144	0.6373 ± 0.0074	0.593 ± 0.0073	0.5581 ± 0.0071	0.5213 ± 0.007	0.4935 ± 0.0069	0.4539 ± 0.0068	0.4302 ± 0.0068
x1 = 0.00192	0.6534 ± 0.0074	0.6059 ± 0.0073	0.5687 ± 0.0072	0.5404 ± 0.0071	0.5059 ± 0.007	0.466 ± 0.0069	0.433 ± 0.0068
x1 = 0.0024	0.6642 ± 0.0075	0.6216 ± 0.0073	0.5828 ± 0.0072	0.5593 ± 0.0071	0.5182 ± 0.007	0.4782 ± 0.0069	0.4357 ± 0.0068

O=CO + CO
303.15 K, 101 kPa
Settings	viscosity [mPa·s]
x1 = 0.0714	0.573 ± 0.012
x1 = 0.1463	0.609 ± 0.012
x1 = 0.2264	0.641 ± 0.013
x1 = 0.3137	0.658 ± 0.013
x1 = 0.4031	0.677 ± 0.014
x1 = 0.506	0.691 ± 0.014
x1 = 0.6149	0.75 ± 0.015
x1 = 0.7328	0.867 ± 0.017
x1 = 0.8604	1.062 ± 0.021

CC(Cl)(Cl)Cl + COC(C)=O
Settings	viscosity
298.15 K, 101.33 kPa, x1 = 0.1	0.3907 ± 0.0044 mPa·s
298.15 K, 101.33 kPa, x1 = 0.101	0.3907 ± 0.0044 mPa·s
298.15 K, 101.33 kPa, x1 = 0.198	0.4156 ± 0.0046 mPa·s
298.15 K, 101.33 kPa, x1 = 0.199	0.4157 ± 0.0046 mPa·s
298.15 K, 101.33 kPa, x1 = 0.297	0.4438 ± 0.0048 mPa·s
298.15 K, 101.33 kPa, x1 = 0.3	0.445 ± 0.0048 mPa·s
298.15 K, 101.33 kPa, x1 = 0.398	0.4763 ± 0.0051 mPa·s
298.15 K, 101.33 kPa, x1 = 0.401	0.4774 ± 0.0051 mPa·s
298.15 K, 101.33 kPa, x1 = 0.499	0.513 ± 0.0054 mPa·s
298.15 K, 101.33 kPa, x1 = 0.5	0.5132 ± 0.0054 mPa·s and 0.5114 ± 0.0054 mPa·s
298.15 K, 101.33 kPa, x1 = 0.599	0.5525 ± 0.0057 mPa·s and 0.5545 ± 0.0058 mPa·s
298.15 K, 101.33 kPa, x1 = 0.699	0.6024 ± 0.0062 mPa·s
298.15 K, 101.33 kPa, x1 = 0.799	0.6574 ± 0.0067 mPa·s
298.15 K, 101.33 kPa, x1 = 0.901	0.7178 ± 0.0072 mPa·s
303.15 K, 101.3 kPa, x2 = 0.0993	0.6661 ± 0.0059 mPa·s
303.15 K, 101.3 kPa, x2 = 0.2042	0.6072 ± 0.0056 mPa·s
303.15 K, 101.3 kPa, x2 = 0.3008	0.5599 ± 0.0055 mPa·s
303.15 K, 101.3 kPa, x2 = 0.4008	0.5182 ± 0.0053 mPa·s
303.15 K, 101.3 kPa, x2 = 0.5039	0.4792 ± 0.0052 mPa·s
303.15 K, 101.3 kPa, x2 = 0.6038	0.4462 ± 0.005 mPa·s
303.15 K, 101.3 kPa, x2 = 0.6968	0.4186 ± 0.0049 mPa·s
303.15 K, 101.3 kPa, x2 = 0.7992	0.3921 ± 0.0049 mPa·s
303.15 K, 101.3 kPa, x2 = 0.902	0.3668 ± 0.0048 mPa·s

CC(Cl)(Cl)Cl + COCC(C)O
298.15 K, 101.33 kPa
Settings	viscosity [mPa·s]
x1 = 0.101	1.508 ± 0.014
x1 = 0.2	1.362 ± 0.013
x1 = 0.3	1.232 ± 0.012
x1 = 0.4	1.119 ± 0.011
x1 = 0.501	1.021 ± 0.0098
x1 = 0.601	0.9385 ± 0.0091
x1 = 0.7	0.8715 ± 0.0085
x1 = 0.72	0.8596 ± 0.0084
x1 = 0.837	0.8044 ± 0.0078
x1 = 0.908	0.785 ± 0.0076
